# Test results from patent US20090048214A1, “Methods for Treating Renal Tumors Using 2, 4-Pyrimidinediamine Drug and Prodrug Compounds” (RIGEL PHARMACEUTICALS, INC, priority 2006, published 2009).
# What was measured:
# [1] = tested on: CCRF-CEM; details: Leukemia, besylate salt
# [2] = tested on: EKVX; experiment: cells; details: Homo sapiens
# [3] = tested on: HS 578T; details: Breast Cancer, besylate salt
# [4] = tested on: MOLT-4; details: MOLT-4, Leukemia; besylate salt
# [5] = tested on: SW-620; details: SW-620, Colon Cancer; besylate salt
# [6] = tested on: NCI-H522; details: NCI-H522, Non-Small Cell Lung Cancer; besylate salt
# [7] = tested on: SN12C; details: Renal Cancer, besylate salt
# [8] = tested on: KM12; experiment: cells; details: Homo sapiens
# [9] = tested on: T-47D; details: Breast Cancer, besylate salt
# [10] = tested on: NCI-H322M; details: Non-Small Cell Lung Cancer, besylate salt
# [11] = tested on: OVCAR-5; details: OVCAR-5, Ovarian Cancer; besylate salt
# [12] = tested on: SK-MEL-28; details: SK-MEL-28, Melanoma; besylate salt
# [13] = tested on: CAKI-1; details: CAKI-1, Renal Cancer; besylate salt
# [14] = tested on: KM12; details: KM12, Colon Cancer; besylate salt
# [15] = tested on: OVCAR-4; experiment: cells; details: Homo sapiens
# [16] = tested on: SF-539; experiment: cells; details: Homo sapiens
# [17] = tested on: SF-268; experiment: cells; details: Homo sapiens
# [18] = tested on: SK-MEL-5; experiment: cells; details: Homo sapiens
# [19] = tested on: HCT-116; details: HCT-116, Colon Cancer; besylate salt
# [20] = tested on: TK-10; experiment: cells; details: Homo sapiens, TK-10, read-out: LC50
# [21] = tested on: MCF7; details: MCF7, Breast Cancer; besylate salt
# [22] = tested on: IGROV1; details: IGROV1, Ovarian Cancer; besylate salt
# [23] = tested on: HOP-92; experiment: cells; details: Homo sapiens
# [24] = tested on: NCI/ADR-RES; details: Breast Cancer, besylate salt
# [25] = tested on: MDA-MB-231/ATCC; details: Breast Cancer, besylate salt
# [26] = tested on: A549/ATCC; details: Non-Small Cell Lung Cancer, besylate salt
# [27] = tested on: EKVX; details: Non-Small Cell Lung Cancer, besylate salt
# [28] = tested on: ACHN; details: Renal Cancer, besylate salt
# [29] = tested on: SR; experiment: cells; details: Homo sapiens
# [30] = tested on: LOX I MVI; details: Melanoma, besylate salt
# [31] = tested on: K-562; experiment: cells; details: Homo sapiens
# [32] = tested on: NCI-H226; experiment: cells; details: Homo sapiens
# [33] = tested on: NCI-H322M; experiment: cells; details: Homo sapiens
# [34] = tested on: HT29; details: HT29, Colon Cancer; besylate salt
# [35] = tested on: OVCAR-5; experiment: cells; details: Homo sapiens
# [36] = tested on: SK-OV-3; experiment: cells; details: Homo sapiens
# [37] = tested on: COLO 205; details: COLO 205, Colon Cancer; besylate salt
compound,measurement,setting,value
COc1cc(Nc2ncc(F)c(Nc3ccc4c(n3)NC(=O)C(C)(C)O4)n2)cc(OC)c1OC [Compound 1],TGI,[1],>1.00E−4
same,IC50,[2]; read-out: G150,1.66 µM
same,CC50,[2]; read-out: LC50,> 100 µM
same,TGI,[3],>1.00E−4
same,TGI,[4],>1.00E−4
same,TGI,[5],>1.00E−4
same,TGI,[6],>1.00E−4
same,TGI,[7],>1.00E−4
same,IC50,"[8]; KM12, read-out: G150",0.355 µM
same,CC50,"[8]; KM12, read-out: LC50",> 100 µM
same,TGI,[9],>1.00E−4
same,TGI,[10],>1.00E−4
same,TGI,[11],>1.00E−4
same,TGI,[12],>1.00E−4
same,TGI,[13],2.44E−6
same,TGI,[14],>1.00E−4
same,IC50,"[15]; OVCAR-4, read-out: G150",> 100 µM
same,CC50,"[15]; OVCAR-4, read-out: LC50",> 100 µM
same,IC50,"[16]; SF-539, read-out: G150",0.605 µM
same,CC50,"[16]; SF-539, read-out: LC50",> 100 µM
same,IC50,"[17]; SF-268, read-out: G150",1.7 µM
same,CC50,"[17]; SF-268, read-out: LC50",> 100 µM
same,IC50,"[18]; SK-MEL-5, read-out: G150",> 100 µM
same,CC50,"[18]; SK-MEL-5, read-out: LC50",> 100 µM
same,TGI,[19],>1.00E−4
same,CC50,[20],> 100 µM
same,TGI,[21],>1.00E−4
same,TGI,[22],>1.00E−4
same,IC50,"[23]; HOP-92, read-out: G150",0.41 µM
same,CC50,"[23]; HOP-92, read-out: LC50",> 100 µM
same,TGI,[24],>1.00E−4
same,TGI,[25],>1.00E−4
same,TGI,[26],>1.00E−4
same,TGI,[27],>1.00E−4
same,TGI,[28],>1.00E−4
same,IC50,[29]; read-out: G150,3.56 µM
same,CC50,[29]; read-out: LC50,> 100 µM
same,TGI,[30],1.13E−6
same,IC50,"[31]; K562, read-out: G150",> 100 µM
same,CC50,"[31]; K562, read-out: LC50",> 100 µM
same,IC50,"[32]; NCI-H226, read-out: G150",0.497 µM
same,CC50,"[32]; NCI-H226, read-out: LC50",> 100 µM
same,IC50,[33]; read-out: G150,> 100 µM
same,CC50,[33]; read-out: LC50,> 100 µM
same,TGI,[34],>1.00E−4
same,IC50,"[35]; OVCAR-5, read-out: G150",> 100 µM
same,CC50,"[35]; OVCAR-5, read-out: LC50",> 100 µM
same,IC50,"[36]; SK-OV-3, read-out: G150",0.429 µM
same,CC50,"[36]; SK-OV-3, read-out: LC50",> 100 µM
same,TGI,[37],>1.00E−4
